Data from ChEMBL document CHEMBL5131482, “Synthesis and SAR of novel GPR39 agonists and positive allosteric modulators” (Bioorg Med Chem Lett, 2022).
pEC50: −log10 of the molar value. Activity calls are given as the source filed them. The rule behind the calls is not given here.

Assays:
[1] = target: T1, G-protein coupled receptor 39 (Homo sapiens) (UniProt O43194); experiment: Agonist activity at human GPR39 receptor expressed in CHO cells assessed as increase in ca2+ flux relative to Zn2+; assay type: functional, cell-based
T1 sequence (whole entry): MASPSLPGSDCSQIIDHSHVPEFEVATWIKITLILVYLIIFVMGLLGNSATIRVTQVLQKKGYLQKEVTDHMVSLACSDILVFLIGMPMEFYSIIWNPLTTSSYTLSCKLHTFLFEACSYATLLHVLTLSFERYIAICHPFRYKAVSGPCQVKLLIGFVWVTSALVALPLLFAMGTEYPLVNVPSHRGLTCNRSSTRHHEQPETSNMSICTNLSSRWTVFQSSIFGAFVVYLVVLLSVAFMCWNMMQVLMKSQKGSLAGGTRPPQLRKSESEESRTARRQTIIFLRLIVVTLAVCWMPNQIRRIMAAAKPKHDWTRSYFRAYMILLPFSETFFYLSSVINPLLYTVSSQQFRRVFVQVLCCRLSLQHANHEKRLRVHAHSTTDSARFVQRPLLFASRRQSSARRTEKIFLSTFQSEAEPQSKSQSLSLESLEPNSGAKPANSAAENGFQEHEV

[2] = target: T2, G-protein coupled receptor 39 (Homo sapiens, UniProt O43194); experiment: Positive allosteric activity at human GPR39 receptor expressed in CHO cells assessed as increase in zn2+ induced ca2+ flux; assay type: cell-based
T2 sequence (O43194 whole entry): T1 sequence (whole entry)

[3] = target: T1, G-protein coupled receptor 39 (Homo sapiens); experiment: Positive allosteric activity at human GPR39 receptor expressed in CHO cells assessed as increase in zn2+ induced ca2+ flux relative to Zn2+; assay type: cell-based; details: filed as positive allosteric modulator
[4] = target: T2, G-protein coupled receptor 39; experiment: Agonist activity at human GPR39 receptor expressed in CHO cells assessed as increase in ca2+ flux; assay type: functional, cell-based
[5] = tested on: SH-SY5Y; experiment: Neuroprotective activity against 6-OHDA-induced PD model of human SH-SY5Y cells assessed as increase in cell viability; assay type: functional, cell-based
[6] = tested on: SH-SY5Y; experiment: Cytotoxicity in human SH-SY5Y cells assessed as decrease in cell viability at 10 uM; assay type: toxicity, cell-based
[7] = filed as positive allosteric modulator

Cc1cc(NC(C)c2ccc(F)cc2)n2ncc(-c3ccccn3)c2n1 (single isomer, unassigned; enantiomer 1) [listing 1 of 2 here]
Emax [1, 7]: 51%

Cc1cc(N2CCCC2c2cccnc2)n2ncc(-c3ccccn3)c2n1 (single isomer, unassigned; enantiomer 2) [listing 1 of 2 here]
Emax [1, 7]: 64%

CNc1nc(Oc2ccccc2)cc(-c2ccccn2)n1
pEC50 [2]: 7.64 | Emax [1, 7]: 58% | Emax [3]: 48% | pEC50 [4]: 6.32

Cc1cc(NC(C)c2ccc(F)cc2)n2ncc(-c3ccccn3)c2n1 (single isomer, unassigned; enantiomer 1) [listing 2 of 2 here]
pEC50 [2]: < 4.57 | pEC50 [4]: 7.77

O=C(Cc1nn(CC2CCC2)c(=O)c2ccccc12)NCc1ccccn1
pEC50 [2]: 5.39 | Emax [3]: 49% | pEC50 [4]: < 4.30

Cc1cc(N2CCCC2c2cccnc2)n2ncc(-c3ccccn3)c2n1 (single isomer, unassigned; enantiomer 1) [listing 1 of 2 here]
Emax [1, 7]: 58%

Cc1cc(N2CCCC2c2cccnc2)n2ncc(-c3ccccn3)c2n1 (single isomer, unassigned; enantiomer 2) [listing 2 of 2 here]
pEC50 ([2]; cho): < 4.57 | pEC50 [4]: 6.62

Cc1cc(N2CCC(c3ccccc3)C2)n2ncc(-c3ccccn3)c2n1 (single isomer, unassigned; enantiomer 1) [listing 1 of 2 here]
Emax [3]: 65%

Cc1cc(NCc2ccc(F)cc2)n2ncc(-c3ccccn3)c2n1
pEC50 [2]: < 4.57 | Emax [1, 7]: 57% | pEC50 [4]: 7.82

Cc1cc(NC(C)(C)c2ccc(F)cc2)n2ncc(-c3ccccn3)c2n1
pEC50 [2]: < 4.57 | Emax [1]: 38% | pEC50 [4]: 7.20

Cc1cc(N2C(=O)CCC2c2ccccc2)n2ncc(-c3ccccn3)c2n1 (racemic)
pEC50 [2]: < 4.57 | pEC50 [4]: < 4.50

Cc1cc(N2CCCC2c2ccccc2)n2ncc(-c3ccccn3)c2n1 (racemic)
pEC50 [2]: < 4.57 | Emax [1]: 36% | pEC50 [4]: 7.77

CNc1nc(NCc2ccccc2Cl)cc(-c2ccccn2)n1
pEC50 [2]: < 4.57 | Emax [1, 7]: 86% | pEC50 [4]: 8.52

Cc1cc(N2CCCC2c2cccnc2)n2ncc(-c3ccccn3)c2n1 (single isomer, unassigned; enantiomer 1) [listing 2 of 2 here]
pEC50 [2]: < 4.57 | pEC50 [4]: 7.10

Cc1cc(N2CCC(c3ccccc3)C2)n2ncc(-c3ccccn3)c2n1 (single isomer, unassigned; enantiomer 2) [listing 1 of 2 here]
Emax [3]: 54%

Cc1cc(NC(C)c2ccc(F)cc2)n2ncc(-c3ccccn3)c2n1 (single isomer, unassigned; enantiomer 2) [listing 1 of 2 here]
Activity [5]: Active | Emax [1, 7]: 68%

CNc1nc(NC2CCCCC2)cc(-c2ccccn2)n1
pEC50 [2]: < 4.57 | Emax [1, 7]: 49% | pEC50 [4]: 7.80

Cc1cc(NC(C)c2ccc(F)cc2)n2ncc(-c3ccccn3)c2n1 (single isomer, unassigned; enantiomer 2) [listing 2 of 2 here]
pEC50 ([2]; cho): < 4.57 | Activity [6]: Toxic | pEC50 [4]: 7.59

CNc1nc(NCc2ccc(NS(C)(=O)=O)cc2Cl)cc(-c2ccccn2)n1
pEC50 [2]: < 4.57 | Activity [5]: Active | Emax [1, 7]: 84% | Activity [6]: Toxic | pEC50 [4]: 7.82

Cc1cc(N2CCC(c3ccccc3)C2)n2ncc(-c3ccccn3)c2n1 (single isomer, unassigned; enantiomer 1) [listing 2 of 2 here]
pEC50 [2]: 6.85 | pEC50 [4]: < 5.00

N#Cc1ccc(N2CCN(Cc3cn4cc(Cl)ccc4n3)CC2)nc1
Emax [1, 7]: 48% | pEC50 [4]: 5.20

NC(Cc1cnc[nH]1)c1nc2ccc(-c3ccccc3)cc2c(=O)[nH]1 (stereo not drawn)
pEC50 [2]: 6.60 | Emax [3]: 102% | pEC50 [4]: < 4.30

CNc1cc(-c2ccccn2)nc(NC2CCCCC2)n1
pEC50 [2]: 6.31 | Emax [3]: 88% | pEC50 [4]: < 4.50

Cn1cc(-c2ccc3nc(C(N)CCOCc4ccccc4)[nH]c(=O)c3c2)cn1 (stereo not drawn)
pEC50 [2]: 6.19 | Emax [3]: 83% | pEC50 [4]: < 4.30

Cc1cc(N2CCC(c3ccccc3)C2)n2ncc(-c3ccccn3)c2n1 (single isomer, unassigned; enantiomer 2) [listing 2 of 2 here]
pEC50 [2]: 6.56 | pEC50 ([4]; cho): < 5.00

CNC(=O)C(Nc1cc(C)nc2c(-c3ccccn3)cnn12)c1ccc(F)cc1 (racemic)
pEC50 [2]: < 4.57 | Emax [1, 7]: 75% | pEC50 [4]: 7.11
